# Measurements reported in ChEMBL document CHEMBL4699634, “Series of Novel and Highly Potent Cyclic Peptide PCSK9 Inhibitors Derived from an mRNA Display Screen and Optimized via Structure-Based Design” (J Med Chem, 2020).
# Numbered stars: 1 amine (or outer) side, 2 acyl side, 3 side chain; on linkers, the order of the positions; unused ones are H or OH. Bridge positions count the residues as written; N and C are the ends. Square brackets hold non-standard residues; d marks the D form. Peptide text beside a SMILES is read from it. * marks the point of attachment. Trp(5-F) = N[C@@H](Cc1c[nH]c2ccc(F)cc12)C(=O)O; mXylylene(5-F) = Fc1cc(C[*:1])cc(C[*:2])c1; Nle(6-COOH) = N[C@@H](CCCCC(=O)O)C(=O)O; X1 = O=C(CCSCc1cccc(CSCCN[*:1])c1)[*:2]; mXylylene = c1cc(C[*:1])cc(C[*:2])c1; Asu = N[C@@H](CCCCCC(=O)O)C(=O)O; PEG4 = NCCOCCOCCOCCOCCC(=O)O; αMeP = C[C@@]1(C(=O)O)CCCN1; Orn = NCCC[C@H](N)C(=O)O; X2 = COCCOCCOCCOCCC(=O)*; Nva = CCC[C@H](N)C(=O)O; Mpa = O=C(O)CCS
# Assays:
# [1] = target: Proprotein convertase subtilisin/kexin type 9 (Homo sapiens, UniProt Q8NBP7); test: Inhibition of AlexaFluor647-tagged cyclic peptide binding to avi-tagged-biotinylated human PCSK9 measured after 2 hrs by Lance Streptavidin Europium based FRET assay
# [2] = Induction of mast cell degranulation in Wistar rat isolated peritoneal cells assessed as effect on histamine release measured after 30 mins; format: tissue-based
# [3] = Cytotoxicity against Wistar rat isolated peritoneal cells assessed as reduction in cell viability up to 60 uM measured after 30 mins; format: cell-based; conditions: peritoneal macrophage cell, 0.5 h
# [4] = target: PCSK9/LDLR (Homo sapiens, UniProt Q8NBP7); test: Inhibition of avi-tagged-biotinylated human PCSK9 interaction with His-tagged human LDLR EGFa domain by LANCE Ulight Streptavidin based TR-FRET assay; format: protein assay
# [5] = target: Chymotrypsinogen A (Bos taurus, UniProt P00766); test: Enzymatic stability assessed as bovine pancreatic alpha-chymotrypsin-mediated compound hydrolysis by measuring parent compound remaining at 100 uM incubated for 1 hr by LC-MS/MS analysis; format: ADME; conditions: cattle, read-out: Stabilty
# [6] = target: Chymotrypsin-like elastase family member 1 (Sus scrofa, UniProt P00772); test: Enzymatic stability assessed as porcine type 4 pancreatic elastase-mediated compound hydrolysis by measuring parent compound remaining at 100 uM incubated for 1 hr by LC-MS/MS analysis; format: ADME; conditions: pig, read-out: Stabilty
# [7] = Enzymatic stability assessed as porcine pepsin-mediated compound hydrolysis by measuring parent compound remaining at 100 uM incubated for 1 hr by LC-MS/MS analysis; format: ADME, Sus scrofa; conditions: pig, read-out: Stabilty
# [8] = Enzymatic stability assessed as bovine pancreatic trypsin-mediated compound hydrolysis by measuring parent compound remaining at 100 uM incubated for 1 hr by LC-MS/MS analysis; format: ADME, Bos taurus; conditions: cattle, read-out: Stabilty
# [9] = Half life in C57BL/6 mouse whole blood at 100 uM by LC-MS/MS analysis; format: ADME, tissue-based
# [10] = Rattus norvegicus, Wistar, Mast cell, 0.5 h, read-out: EC50
# Proprotein convertase subtilisin/kexin type 9, sequence (Q8NBP7 31-152 limits assumed): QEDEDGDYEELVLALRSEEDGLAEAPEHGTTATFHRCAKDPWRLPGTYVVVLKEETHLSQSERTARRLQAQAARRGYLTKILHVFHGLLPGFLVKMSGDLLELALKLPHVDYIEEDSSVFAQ
# Proprotein convertase subtilisin/kexin type 9, sequence (Q8NBP7 153-692 limits assumed): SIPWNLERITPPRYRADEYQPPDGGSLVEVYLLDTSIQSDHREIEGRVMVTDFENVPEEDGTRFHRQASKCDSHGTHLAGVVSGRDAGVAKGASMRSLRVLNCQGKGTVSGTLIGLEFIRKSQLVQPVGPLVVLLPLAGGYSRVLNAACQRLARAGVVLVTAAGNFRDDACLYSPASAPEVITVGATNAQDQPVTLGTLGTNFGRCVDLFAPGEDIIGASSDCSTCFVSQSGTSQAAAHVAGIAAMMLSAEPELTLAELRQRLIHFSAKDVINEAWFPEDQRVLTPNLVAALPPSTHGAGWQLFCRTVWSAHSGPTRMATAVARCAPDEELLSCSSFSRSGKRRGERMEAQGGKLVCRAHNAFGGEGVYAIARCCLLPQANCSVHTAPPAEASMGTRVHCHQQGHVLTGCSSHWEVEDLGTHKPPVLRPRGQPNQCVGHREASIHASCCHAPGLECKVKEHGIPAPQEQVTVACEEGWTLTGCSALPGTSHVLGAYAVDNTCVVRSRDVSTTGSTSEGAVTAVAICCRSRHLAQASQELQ
# PCSK9/LDLR, sequence (Q8NBP7 31-152 limits assumed): as the sequence (Q8NBP7 31-152 limits assumed) above
# PCSK9/LDLR, sequence (Q8NBP7 153-692 limits assumed): as the sequence (Q8NBP7 153-692 limits assumed) above
# PCSK9/LDLR, sequence (P01130 22-860 partner limits assumed): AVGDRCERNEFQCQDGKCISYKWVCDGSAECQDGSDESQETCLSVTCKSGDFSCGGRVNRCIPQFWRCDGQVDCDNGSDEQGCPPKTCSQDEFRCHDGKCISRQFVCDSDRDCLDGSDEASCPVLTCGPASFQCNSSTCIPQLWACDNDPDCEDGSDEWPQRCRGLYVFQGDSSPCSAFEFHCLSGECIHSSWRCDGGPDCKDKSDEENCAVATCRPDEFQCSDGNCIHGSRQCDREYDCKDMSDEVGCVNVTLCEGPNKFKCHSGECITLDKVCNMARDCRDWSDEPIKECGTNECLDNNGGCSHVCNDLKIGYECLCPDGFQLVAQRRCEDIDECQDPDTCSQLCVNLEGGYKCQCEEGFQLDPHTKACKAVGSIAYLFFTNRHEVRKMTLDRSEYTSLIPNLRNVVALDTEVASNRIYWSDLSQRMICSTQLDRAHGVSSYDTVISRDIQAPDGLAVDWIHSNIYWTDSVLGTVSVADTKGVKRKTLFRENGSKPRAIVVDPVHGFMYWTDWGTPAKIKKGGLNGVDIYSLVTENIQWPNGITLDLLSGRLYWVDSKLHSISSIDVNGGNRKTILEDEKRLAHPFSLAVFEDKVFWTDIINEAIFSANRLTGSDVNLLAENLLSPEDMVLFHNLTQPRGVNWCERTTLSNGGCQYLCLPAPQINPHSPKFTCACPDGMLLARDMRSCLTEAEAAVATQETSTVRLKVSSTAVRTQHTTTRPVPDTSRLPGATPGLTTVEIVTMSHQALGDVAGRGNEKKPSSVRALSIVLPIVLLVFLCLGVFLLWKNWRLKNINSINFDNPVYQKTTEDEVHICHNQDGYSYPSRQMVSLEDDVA
# Chymotrypsin-like elastase family member 1, sequence (P00772 whole entry): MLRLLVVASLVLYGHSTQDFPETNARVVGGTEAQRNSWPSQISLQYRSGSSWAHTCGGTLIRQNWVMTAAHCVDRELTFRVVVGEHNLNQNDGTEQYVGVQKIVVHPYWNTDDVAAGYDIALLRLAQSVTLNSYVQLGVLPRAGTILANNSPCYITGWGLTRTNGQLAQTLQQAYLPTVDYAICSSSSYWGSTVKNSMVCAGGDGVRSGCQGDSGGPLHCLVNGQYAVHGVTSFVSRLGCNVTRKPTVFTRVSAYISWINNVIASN
Compound,Ki [1] [nM],EC50 ([2]; mast cell),Activity [3],Ki [4] [nM],further results
COc1ccc(C[C@@H]2NC(=O)[C@H]([C@@H](C)O)NC(=O)[C@@H]3CCCC(=O)NCc4cccc(c4)C[C@H](NC(=O)[C@@H](C)NC(=O)[C@H](C)NC(=O)CCSCc4cccc(c4)CSCCNC(=O)[C@]4(C)CCCN4C2=O)C(=O)N[C@@H](Cc2c[nH]c4ccc(F)cc24)C(=O)N3)cc1,44.2,–,–,–,–
COc1ccc(C[C@@H]2NC(=O)[C@H]([C@@H](C)O)NC(=O)[C@@H]3CCCCC(=O)NCc4cccc(c4)C[C@H](NC(=O)[C@@H](C)NC(=O)[C@H](C)NC(=O)CCSCc4cccc(c4)CSCCNC(=O)[C@]4(C)CCCN4C2=O)C(=O)N[C@@H](Cc2c[nH]c4ccc(F)cc24)C(=O)N3)cc1,4,–,–,–,–
COc1ccc(C[C@@H]2NC(=O)[C@H](Cc3cnc[nH]3)NC(=O)[C@H](CC(=O)O)NC(=O)[C@H](Cc3c[nH]c4ccc(F)cc34)NC(=O)[C@H](Cc3c[nH]c4ccc(F)cc34)NC(=O)[C@@H](C)NC(=O)[C@H](CNC(=O)COCCOCCN)NC(=O)CCSCc3cccc(c3)CSCCNC(=O)[C@]3(C)CCCN3C2=O)cc1,8.2,Non-Toxic,Non-Toxic,–,–
COc1ccc(C[C@@H]2NC(=O)[C@H](Cc3cnc[nH]3)NC(=O)[C@H](CC(=O)O)NC(=O)[C@H](Cc3c[nH]c4ccc(F)cc34)NC(=O)[C@H](Cc3c[nH]c4ccc(F)cc34)NC(=O)[C@@H](C)NC(=O)[C@H](CCCCN(C)C)NC(=O)CCSCc3cccc(c3)CSCCNC(=O)[C@]3(C)CCCN3C2=O)cc1,4.2,–,Non-Toxic,–,"EC50 [2, 10]: 10000 nM"
COc1ccc(C[C@@H]2NC(=O)[C@H]([C@@H](C)O)NC(=O)[C@@H]3CCCCC(=O)NCc4ccc(cc4)C[C@H](NC(=O)[C@@H](C)NC(=O)[C@H](C)NC(=O)CCSCc4cccc(c4)CSCCNC(=O)[C@]4(C)CCCN4C2=O)C(=O)N[C@@H](Cc2c[nH]c4ccc(F)cc24)C(=O)N3)cc1,175,–,–,–,–
COc1ccc(C[C@@H]2NC(=O)[C@H]([C@@H](C)O)NC(=O)[C@@H]3CC(=O)NCc4cccc(c4)C[C@H](NC(=O)[C@@H](C)NC(=O)[C@H](C)NC(=O)CCSCc4cccc(c4)CSCCNC(=O)[C@]4(C)CCCN4C2=O)C(=O)N[C@@H](Cc2c[nH]c4ccc(F)cc24)C(=O)N3)cc1,285,–,–,–,–
C[C@H]1NC(=O)[C@H](CCC(=O)O)NC(=O)CCSCc2cccc(c2)CSCCNC(=O)[C@]2(C)CCCN2C(=O)[C@H](Cc2ccc(O)cc2)NC(=O)[C@H](Cc2cnc[nH]2)NC(=O)[C@H](CC(=O)O)NC(=O)[C@H](Cc2c[nH]c3ccc(F)cc23)NC(=O)[C@H](Cc2c[nH]c3ccc(F)cc23)NC1=O,–,–,Non-Toxic,202,"EC50 [2, 10]: 1000 nM"
CCC[C@H]1NC(=O)[C@H](CCCCN)NC(=O)CCSCc2cccc(c2)CSCCNC(=O)[C@]2(C)CCCN2C(=O)[C@H](Cc2ccc(O)cc2)NC(=O)[C@H](Cc2cnc[nH]2)NC(=O)[C@H](CC(=O)O)NC(=O)[C@H](Cc2c[nH]c3ccc(F)cc23)NC(=O)[C@H](Cc2c[nH]c3ccc(F)cc23)NC1=O,2.7,–,–,43.5,–
COc1ccc(C[C@@H]2NC(=O)[C@H](Cc3cnc[nH]3)NC(=O)[C@H](CC(=O)O)NC(=O)[C@H](Cc3c[nH]c4ccc(F)cc34)NC(=O)[C@H](Cc3c[nH]c4ccc(F)cc34)NC(=O)[C@@H](C)NC(=O)[C@H](CCCCO)NC(=O)CCSCc3cccc(c3)CSCCNC(=O)[C@]3(C)CCCN3C2=O)cc1,39,Non-Toxic,Non-Toxic,78.9,–
COc1ccc(C[C@@H]2NC(=O)[C@H]([C@@H](C)OC)NC(=O)[C@@H]3CCC(=O)NCc4cccc(c4)C[C@H](NC(=O)[C@@H](C)NC(=O)[C@H](C)NC(=O)CCSCc4cccc(c4)CSCCNC(=O)[C@]4(C)CCCN4C2=O)C(=O)NC(Cc2ccnc4ccc(F)cc24)C(=O)N3C)cc1 (stereo partly specified),2.8,–,–,–,–
C[C@@H]1NC(=O)CCSCc2cccc(c2)CSC[C@@H](C(N)=O)NC(=O)[C@@H]2CCCN2C(=O)[C@H](Cc2ccc(O)cc2)NC(=O)[C@H](Cc2cnc[nH]2)NC(=O)[C@H](CC(=O)O)NC(=O)[C@H](Cc2c[nH]c3ccc(F)cc23)NC(=O)[C@H](Cc2c[nH]c3ccc(F)cc23)NC(=O)CNC1=O ([Mpa]AG[Trp(5-F)][Trp(5-F)]DHYPC-NH2; linker 1-10 via mXylylene),–,–,–,392,"remaining at 1 h, 100 µM [5]: 15.5%; remaining at 1 h, 100 µM [6]: 54.9%; remaining at 1 h, 100 µM [7]: 92.5%; remaining at 1 h, 100 µM [8]: 1%; half-life at 100 µM [9]: 1.49 h"
C[C@@]12CCCN1C(=O)[C@H](Cc1ccc(O)cc1)NC(=O)[C@H](Cc1cnc[nH]1)NC(=O)[C@H](CC(=O)O)NC(=O)[C@H](Cc1c[nH]c3ccc(F)cc13)NC(=O)[C@H](Cc1c[nH]c3ccc(F)cc13)NC(=O)CNC(=O)[C@H](CCCCNC(=O)CCOCCOCCOCCOCCN)NC(=O)CCSCc1cccc(c1)CSC[C@@H](C(N)=O)NC2=O ([Mpa]K(PEG4)G[Trp(5-F)][Trp(5-F)]DHY[αMeP]C-NH2; linker 1-10 via mXylylene),10.7,Non-Toxic,Non-Toxic,–,–
COCCOCCOCCOCCC(=O)NCCCC[C@@H]1NC(=O)CCSCc2cccc(c2)CSC[C@@H](C(N)=O)NC(=O)[C@]2(C)CCCN2C(=O)[C@H](Cc2ccc(O)cc2)NC(=O)[C@H](Cc2cnc[nH]2)NC(=O)[C@H](CC(=O)O)NC(=O)[C@H](Cc2c[nH]c3ccc(F)cc23)NC(=O)[C@H](Cc2c[nH]c3ccc(F)cc23)NC(=O)CNC1=O ([Mpa]K(X2)G[Trp(5-F)][Trp(5-F)]DHY[αMeP]C-NH2; linker 1-10 via mXylylene),9.4,Non-Toxic,Non-Toxic,–,"remaining at 1 h, 100 µM [5]: 39.5%; remaining at 1 h, 100 µM [6]: 96.3%; remaining at 1 h, 100 µM [7]: 98.6%; remaining at 1 h, 100 µM [8]: 96%; half-life at 100 µM [9]: > 6 h"
C[C@@H](O)[C@@H]1NC(=O)[C@@H]2CCCN2C(=O)[C@H](Cc2c[nH]c3ccc(F)cc23)NC(=O)[C@H](Cc2c[nH]c3ccc(F)cc23)NC(=O)CNC(=O)[C@H](CCCCN)NC(=O)CCSCc2cccc(c2)CSC[C@@H](C(N)=O)NC(=O)[C@]2(C)CCCN2C(=O)[C@H](Cc2ccc(O)cc2)NC1=O ([Mpa]KG[Trp(5-F)][Trp(5-F)]PTY[αMeP]C-NH2; linker 1-10 via mXylylene),11.7,–,–,23.9,"remaining at 1 h, 100 µM [5]: 91%; remaining at 1 h, 100 µM [6]: 51%; remaining at 1 h, 100 µM [7]: 95%; remaining at 1 h, 100 µM [8]: 1.9%; half-life at 100 µM [9]: > 6 h"
C[C@H]1NC(=O)[C@H](CCCCN)NC(=O)CCSCc2cc(F)cc(c2)CSC[C@@H](C(N)=O)NC(=O)[C@]2(C)CCCN2C(=O)[C@H](Cc2ccc(O)cc2)NC(=O)[C@H]([C@@H](C)O)NC(=O)[C@@H]2CCCN2C(=O)[C@H](Cc2c[nH]c3ccc(F)cc23)NC(=O)[C@H](Cc2c[nH]c3ccc(F)cc23)NC1=O ([Mpa]K[dA][Trp(5-F)][Trp(5-F)]PTY[αMeP]C-NH2; linker 1-10 via mXylylene(5-F)),11,–,–,–,–
CCC[C@@H]1NC(=O)CCSCc2cccc(c2)CSC[C@@H](C(N)=O)NC(=O)[C@]2(C)CCCN2C(=O)[C@H](Cc2ccc(O)cc2)NC(=O)[C@H](Cc2cnc[nH]2)NC(=O)[C@H](CC(=O)O)NC(=O)[C@H](Cc2c[nH]c3ccc(F)cc23)NC(=O)[C@H](Cc2c[nH]c3ccc(F)cc23)NC(=O)CNC1=O ([Mpa][Nva]G[Trp(5-F)][Trp(5-F)]DHY[αMeP]C-NH2; linker 1-10 via mXylylene),35.2,–,Non-Toxic,94.7,"EC50 [2, 10]: 7000 nM"
C[C@@]12CCCN1C(=O)[C@H](Cc1ccc(O)cc1)NC(=O)[C@H](Cc1cnc[nH]1)NC(=O)[C@H](CC(=O)O)NC(=O)[C@H](Cc1c[nH]c3ccc(F)cc13)NC(=O)[C@H](Cc1c[nH]c3ccc(F)cc13)NC(=O)CNC(=O)[C@H](CCCN)NC(=O)CCSCc1cccc(c1)CSC[C@@H](C(N)=O)NC2=O ([Mpa][Orn]G[Trp(5-F)][Trp(5-F)]DHY[αMeP]C-NH2; linker 1-10 via mXylylene),14.3,Non-Toxic,Non-Toxic,132,–
COc1ccc(C[C@@H]2NC(=O)[C@H](Cc3cnc[nH]3)NC(=O)[C@H](CC(=O)O)NC(=O)[C@H](Cc3c[nH]c4ccc(F)cc34)NC(=O)[C@H](Cc3c[nH]c4ccc(F)cc34)NC(=O)[C@@H](C)NC(=O)[C@H](CCCCC(=O)O)NC(=O)CCSCc3cccc(c3)CSCCNC(=O)[C@]3(C)CCCN3C2=O)cc1 (cyclo(DHY(Me)[αMeP][X1][Nle(6-COOH)][dA][Trp(5-F)][Trp(5-F)])),85.8,Non-Toxic,Non-Toxic,–,–
C[C@@]12CCCN1C(=O)[C@H](Cc1ccc(O)cc1)NC(=O)[C@H](Cc1cnc[nH]1)NC(=O)[C@H](CC(=O)O)NC(=O)[C@H](Cc1c[nH]c3ccc(F)cc13)NC(=O)[C@H](Cc1c[nH]c3ccc(F)cc13)NC(=O)CNC(=O)[C@H](CCCCN)NC(=O)CCSCc1cccc(c1)CSCCNC2=O (cyclo(DHY[αMeP][X1]KG[Trp(5-F)][Trp(5-F)])),4.3,–,–,26.6,"remaining at 1 h, 100 µM [5]: 7.4%; remaining at 1 h, 100 µM [6]: 46.1%; remaining at 1 h, 100 µM [7]: 99.1%; remaining at 1 h, 100 µM [8]: 0.8%; half-life at 100 µM [9]: 5.56 h"
COc1ccc(C[C@@H]2NC(=O)[C@H](Cc3cnc[nH]3)NC(=O)[C@H](CC(=O)O)NC(=O)[C@H](Cc3c[nH]c4ccc(F)cc34)NC(=O)[C@H](Cc3c[nH]c4ccc(F)cc34)NC(=O)[C@@H](C)NC(=O)[C@H](CCCCCC(=O)O)NC(=O)CCSCc3cccc(c3)CSCCNC(=O)[C@]3(C)CCCN3C2=O)cc1 (cyclo([Asu][dA][Trp(5-F)][Trp(5-F)]DHY(Me)[αMeP][X1])),80.7,Non-Toxic,Non-Toxic,–,–
